Reference: patent US5886022A, “Substituted cycloalkanecarboxylic acid derivatives as matrix metalloprotease inhibitors” (priority 1997, dated 1999)
Where a name gives a salt, the structure may show the parent alone.

Key:
Type in all cases: biochemical
[1] = target: T1, MMP-3 (recombinant truncated stromelysin) (Homo sapiens, UniProt P08254); test: Primary Thiopeptilide MMP-3 Inhibition Assay; details: for IC50: x (n): average IC50 of n separate determinations
T1 construct: made in house; host or cells: E. coli
T1 sequence (P08254 100-274 limits assumed): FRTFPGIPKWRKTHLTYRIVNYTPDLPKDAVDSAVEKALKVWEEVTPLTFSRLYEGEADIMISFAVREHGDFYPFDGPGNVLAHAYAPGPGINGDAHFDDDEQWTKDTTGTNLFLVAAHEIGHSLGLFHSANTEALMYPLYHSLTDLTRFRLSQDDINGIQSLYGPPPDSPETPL
Method: Reaction mixtures for inhibitor studies contained 1 mM Ac-Pro-Leu-Gly-S-Leu-Leu-Gly-o-ethyl thiopeptolide substrate dissolved in HEPES assay buffer pH 6.5, along with 0.5 mM 5,5'-dithio-bis-(nitrobenzoicacid), drug concentrations ranging from 0.5 nM to 5 μM and activated enzyme (10-100 ng) in a total volume of 130 μl. […] Enzyme mediated substrate hydrolysis was corrected for non-enzymatic hydrolysis of the substrate by the subtraction of values from control samples incubated in the absence of enzyme. Drug efficacy was reported as the percent inhibition of enzyme activity calculated as:
Enzyme: recombinant stromelysin expressed in E.coli and purified as described above. […] The protocols for the assay of compounds as stromelysin inhibitors was the same as that used for MMP-9 except that the assay buffer was 50 mM MES, pH 6.5 containing 150mM NaCl, 10 mM CaCl2, 0.005% Brij, and 1% DMSO.
All IC50 values are expressed as nM. […] When "x (n)" is shown, x is the erage IC50 value of n separate determinations.

[2] = target: T2, MMP-9 (Gelatinase-B, 92 kDa) (Homo sapiens, UniProt P14780); test: Thiopeptilide MMP-9 Inhibition Assay; details: for IC50: x (n): average IC50 of n separate determinations
T2 construct: from tissue; host or cells: human polymorphonuclear leukocytes from fresh whole blood (New York Blood Center), PMA-stimulated supernatant, purified
T2 sequence (P14780 107-707 limits assumed): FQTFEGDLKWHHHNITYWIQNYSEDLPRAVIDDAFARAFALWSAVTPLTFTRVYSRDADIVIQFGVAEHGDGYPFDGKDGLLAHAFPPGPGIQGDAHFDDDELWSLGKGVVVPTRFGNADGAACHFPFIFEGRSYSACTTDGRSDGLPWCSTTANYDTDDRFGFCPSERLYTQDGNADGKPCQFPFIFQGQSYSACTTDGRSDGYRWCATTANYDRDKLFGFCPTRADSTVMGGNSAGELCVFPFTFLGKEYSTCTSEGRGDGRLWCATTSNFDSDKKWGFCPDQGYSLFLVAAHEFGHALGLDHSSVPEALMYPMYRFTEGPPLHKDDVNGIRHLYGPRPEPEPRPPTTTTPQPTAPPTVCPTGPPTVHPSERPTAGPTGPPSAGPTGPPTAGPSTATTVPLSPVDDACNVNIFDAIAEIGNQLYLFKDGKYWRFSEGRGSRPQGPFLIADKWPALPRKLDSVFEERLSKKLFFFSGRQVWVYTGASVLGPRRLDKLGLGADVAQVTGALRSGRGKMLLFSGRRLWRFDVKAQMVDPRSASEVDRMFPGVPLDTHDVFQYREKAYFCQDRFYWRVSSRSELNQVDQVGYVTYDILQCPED
Method: MMP-9 was isolated modifying the previously described procedures of Hibbs et al (J. Biol. Chem., 260, 2493-2500, 1984) and Wilhelm et al (J. Biol. Chem., 264, 17213-17221, 1989). Briefly, polymorphonuclear leukocytes (PMN) preparations were isolated as described above from 3 or more units of freshly drawn whole blood obtained from the New York Blood Center (N.Y., N.Y.). Cells were resuspended in phosphate buffered saline (PBS) containing 100 ng/ml phorbol myristate acetate (PMA) in the presence of 50 mM di-isopropylfluorophospate (DFP), 1 μg/ml leupeptin and aprotinin, and 1 mg/ml catalase for 1 hr at 37° C. Supernatants were collected by centrifugation (300×g) and the samples were frozen at -70° C. All chromatographic methods were performed at 4° C. Thawed samples were concentrated 5-fold using an Amicon chamber equipped with a YM-10 membrane. The concentrate was pressure dialyzed against 0.02M Tris-HCl, 0.1M NaCl, 1 mM CaCl2, 1 μM ZnCl2, 0.001 % Brij-35, 0.02% sodium azide (NaN3), pH 7.5 and applied to DEAE ion exchange chromatography resin which was previously equilibrated with the same buffer at a flow rate of 0.4 ml/min. The column was extensively washed with the same buffer and gelatinase was eluted as 4 ml fractions from the column with 0.02M Tris-HCl, 0.5M NaCl, 1 mM CaCl2, 1 μM ZnCl2, 0.001% Brij-35, 0.02% NaN3, pH 7.5. Gelatinase containing fractions were observed by gelatin zymography (see below), loaded onto a gelatin agarose affinity resin and washed with the same buffer. Gelatinase activity was eluted at a flow rate of 1 ml/min from the column as 1 ml fractions with 0.02M Tris-HCl, 1M NaCl, 1 mM CaCl2, 1 μmM ZnCl2, 0.001% Brij-35, 0.02% NaN3, pH 7.5 containing 10% dimethyl sulfoxide (DMSO). The fractions containing gelatinase activity were pooled and dialyzed against 0.005M Tris-HCl, 5 mM NaCl, 0.5 mM CaCl2, 0.1 μM ZnCl2, 0.001% Brij-35, pH 7.4. The protein content associated with material was determined with a micro-BCA assay (Pierce, Rockford, Ill.), lyophilized and reconstituted to a desired working concentration (100 μg/ml).
Progelatinase (10 μg/ml) isolated from human PMNs (described above) was activated with 1 mM 4-aminophenylmercuric acetate (APMA) in 50 mM Tris-HCl, 200 mM NaCl, 5 mM CaCl2, 0.001% Brij-35, pH 7.6 at 37° C. for 16 hr. The activated enzyme was dialyzed against the above buffer to remove APMA. The thiopeptolide spectrophotometric ( Weingarten, H., Feder, J., Anal. Biochem., 147, 437-440, 1985) substrate hydrolysis assay was modified to a micro-assay format. Spectrophotometric analysis of MMP-9 activity required a 1000-fold dilution of activated MMP-9 (10 ng/ml, 0.14 nM) in assay buffer comprised of 50 mM 4-(2-hydroxyethyl)1-piperazine ethane sulfonic acid (HEPES), 0.15M NaCl, 10 mM CaCl2, 0.001% Brij-35, pH 6.5 between 100 and 1000-fold for enzyme assays. Reaction mixtures for inhibitor studies contained 1 mM Ac-Pro-Leu-Gly-S-Leu-Leu-Gly-o-ethyl thiopeptolide substrate dissolved in HEPES assay buffer pH 6.5, along with 0.5 mM 5,5'-dithio-bis-(nitrobenzoicacid), drug concentrations ranging from 0.5 nM to 5 μM and activated enzyme (10-100 ng) in a total volume of 130 μl. The hydrolysis of substrate was monitored at 405 nm using an automated plate reader (Molecular Devices, Menlo Park, Calif.). Enzyme mediated substrate hydrolysis was corrected for non-enzymatic hydrolysis of the substrate by the subtraction of values from control samples incubated in the absence of enzyme. Drug efficacy was reported as the percent inhibition of enzyme activity calculated as:
(Control Values-Treated Values)/Control Values×100
Two way analysis of variance was used to determine significance between individual test groups.
All IC50 values are expressed as nM. When "I=x %" is shown, x presents the % inhibition at 5 μM. When "x (n)" is shown, x is the erage IC50 value of n separate determinations.

[3] = system: MMP; test: MMP inhibitory activity

Compound | IC50 [1] [nM] | IC50 [2] [nM] | other results
O=C(O)[C@@H]1[C@@H](Sc2ccc(Cl)cc2)CC[C@H]1C(=O)c1ccc(-c2ccc(Cl)cc2)cc1 (relative stereo) [Example 222, Cyclopentanecarboxylic acid, 2-[(4'-chloro [1,1'-biphenyl]-4-yl)carbonyl]-5-[(4-chlorophenyl)thio]-, (1α,2β,5β)-] | 80 | 32 | –
CCOc1ccc(-c2ccc(C(=O)[C@@H]3CC[C@@H](Sc4ccccc4)[C@H]3C(=O)O)cc2)cc1 (relative stereo) [Example 225, Cyclopentanecarboxylic acid, 2-[(4'-ethoxy[1,1'-biphenyl]-4-yl)carbonyl]-5-(phenylthio)-, (1α,2β,5α)-] | 66 | – | –
CC(C)CC(CC(O)c1ccc(-c2ccc(Cl)cc2)cc1)C(=O)O (stereo not drawn) [Example 26, [1,1'-Biphenyl]-4-butanoic acid, 4'-chloro-γ-hydroxy-α-(2-methylpropyl)-] | 2600 | 2400 | –
CC(C)CC(CC(=O)c1ccc(-c2ccccc2)cc1)C(=O)O (stereo not drawn) [Example 13, [1,1'-Biphenyl]-4-butanoic acid, α-(2-methylpropyl)-γ-oxo-] | – | – | MMP inhibitory activity / potency in words [3]: low potency
CCOc1ccc(-c2ccc(C(=O)[C@@H]3CC[C@H](Cc4ccccc4)[C@H]3C(=O)O)cc2)cc1 (relative stereo) [Example 226, Cyclopentanecarboxylic acid, 2-[(4'-ethoxy[1,1'-biphenyl]-4-yl)carbonyl]-5-(phenylmethyl)-, (1α,2β,5β)-] | 98 | – | –
O=C(O)[C@@H]1[C@H](Sc2ccc(Cl)cc2)CC[C@H]1C(=O)c1ccc(-c2ccc(Cl)cc2)cc1 (relative stereo) [Example 223, Cyclopentanecarboxylic acid, 2-[(4'-chloro[1,1'-biphenyl]-4-yl)carbonyl]-5-[(4-chlorophenyl)thio]-, (1α,2β,5α)-] | 340 | 700 | –
CCOc1ccc(-c2ccc(C(=O)[C@@H]3CC[C@H](Sc4ccccc4)[C@H]3C(=O)O)cc2)cc1 (relative stereo) [Example 224, Cyclopentanecarboxylic acid, 2-[(4'-ethoxy[1,1'-biphenyl]-4-yl)carbonyl]-5-(phenylthio)-, (1α,2β,5β)-] | 36 | – | –
CC(=O)SC(CC(=O)c1ccc(Oc2ccc(Cl)cc2)cc1)C(=O)O (stereo not drawn) [Example 183, Benzenebutanoic acid, α-(acetylthio)-4-(4-chlorophenoxy)-γ-oxo-, reference compound] | – | – | MMP inhibitory activity / potency in words [3]: very low potency
CC(C)CC(CC(O)c1ccc(-c2ccc(Cl)cc2)cc1)C(=O)O (stereo not drawn) [Example 27, [1,1'-Biphenyl]-4-butanoic acid, 4'-chloro-γ-hydroxy-α-(2-methylpropyl)-] | 5000 | – | –
O=C(C[C@@H](C[S+]([O-])c1ccccc1)C(=O)O)c1ccc(-c2ccc(Cl)cc2)cc1 (stereo partly drawn) [Example 126, [1,1'-Biphenyl]-4-butanoic acid, 4'-chloro-γ-oxo-α-[(phenylsulfmyl)methyl]-,stereoisomer] | – | – | MMP-3 Thiopeptilide % inhibition (I) ([1]; at 5 μM): 17%
COC(=O)c1ccccc1S[C@@H]1CC[C@H](C(=O)c2ccc(-c3ccc(Cl)cc3)cc2)[C@H]1C(=O)O (relative stereo) [Example 219, Benzoic acid, 2-[[2-carboxy-3-[(4'-chloro[1,1'-biphenyl]-4-yl)carbonyl]cyclopentyl]thio]-, 1-methyl ester, (1α,2β,3α)-] | 33 | 108 | –
O=C(O)[C@@H]1CC[C@H]1C(=O)c1ccc(-c2ccc(Cl)cc2)cc1 (relative stereo) [Example 206, Cyclobutanecarboxylic acid, 2-[(4'-chloro[1,1'-biphenyl]-4-yl)carbonyl]-, trans-] | – | – | MMP inhibitory activity / potency in words [3]: much more active
O=C(O)[C@@H]1[C@@H](Cc2ccccc2)CC[C@H]1C(=O)c1ccc(-c2ccc(Cl)cc2)cc1 (relative stereo) [Example 227, Cyclopentanecarboxylic acid, 2-[(4'-chloro [1,1'-biphenyl]-4-yl)carbonyl]-5-(phenylmethyl)-, (1α,2β,5β)-] | 140 | – | –
Cc1cc(C)cc(SCC(CC(=O)c2ccc(-c3ccc(Cl)cc3)cc2)C(=O)O)c1 (stereo not drawn) [Example 165, [1,1'-Biphenyl]-4-butanoic acid, 4'-chloro-α-[[(3,5-dimethylphenyl)thio]methyl]-γ-oxo-] | 1600 | – | –
O=C(CC(CCCc1ccccc1)C(=O)O)c1ccc(-c2ccccc2)cc1 (stereo not drawn) [Example 91, [1,1'-Biphenyl]-4-butanoic acid, γ-oxo-α-(3-phenylpropyl)-] | – | 2800 | MMP inhibitory activity / potency in words [3]: low potency
O=C(CC(CCN1C(=O)c2ccccc2C1=O)C(=O)O)c1ccc(-c2ccc(Cl)cc2)cc1 (stereo not drawn) [Example 194, 2H-Isoindole-2-butanoic acid, α-[2-(4'-chloro[1,1'-biphenyl]-4-yl)-2-oxoethyl]-1,3-dihydro-1,3-dioxo-] | 38 | 1.8 | –
O=C(CC(C(=O)O)N1CCSCC1)c1ccc(-c2ccc(Cl)cc2)cc1 (stereo not drawn) [Example 184, 4-Thiomorpholineacetic acid, α-[2-(4'-chloro[1,1'-biphenyl]-4-yl)-2-oxoethyl]-, hydrochloride] | – | – | inhibition at 5 µM ([1]; at 5 μM, read-out: MMP-3 Thiopeptilide % inhibition (I)): 19%
O=C(O)[C@@H]1[C@@H](C(=O)c2ccc(-c3ccc(Cl)cc3)cc2)CC[C@H]1Sc1ccccc1 (single isomer, unassigned) [Example 212, Cyclopentanecarboxylic acid, 2-[(4'-chloro[,1'-biphenyl]-4-yl)carbonyl]-5-(phenylthio)-, [1R-(1α,2β,5β)]-] | – | 640 | –
O=C(CC(Cc1ccccc1)C(=O)O)c1ccc(-c2ccc(Cl)cc2)cc1 (stereo not drawn) [Example 105, [1,1'-Biphenyl]-4-butanoic acid, 4'-chloro-γ-oxo-α-(phenylmethyl)-] | – | 900 | –
CCN(CC)CCC(CC(=O)c1ccc(-c2ccc(Cl)cc2)cc1)C(=O)O (stereo not drawn) [Example 191, [1,1'-Biphenyl]-4-butanoic acid, 4'-chloro-α-[2-(diethylamino)ethyl]-γ-oxo-,hydrochloride] | – | – | inhibition at 5 µM ([2]; at 5 μM, read-out: MMP-9 Thiopeptilide % inhibition (I)): 31%
